# Test results reported in patent US20250129070A1, “BIFUNCTIONAL ANDROGEN RECEPTOR COMPOUNDS” (priority 2023, published 2025).
# Legend:
# Format in all cases: cell-based
# AR / CBP ternary complex = test: Ternary complex formation assay (sandwich ELISA, AR capture / CBP detection) in VCaP cell lysates; details: 1.5 hours treatment, sandwich ELISA (AR capture, CBP or p300 detection)
# Method in brief: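 Anti-AR (AR 441)-coated plates capture AR from lysates of VCaP cells grown ≥3 days at 50K/well in 5% charcoal-stripped FBS, dosed with bifunctional for 1.5 h and lysed 30 min at 4 °C. Co-captured CBP/p300 is probed with rabbit mAb and HRP anti-rabbit, then QuantaRed fluorescence (570/585) is read at 0, 5 and 15 min.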
# HEK-293 cells = test: HEK-293 growth inhibition assay; details: 3 days, CTG
# Experimental: Cluster plates are returned to the incubator (37*C/5% CO2) for 24 hours prior to treatment. […] Cluster plates are returned to the incubator for 3 days.
# After the 3-day treatment period, 100 uL media was removed from each well by aspiration and 100 uL room temperature CTG reagent (Promega Cat #G7573) is added back to each well. The cluster plates are placed on a shaker and incubated at room temperature for 20 minutes. Following this shaking/incubation, cluster plates are read on a luminometer (BMG ClarioStar). IC50 values are obtained by graphing the RLU data vs. compound concentration with nonlinear regression 4-parameter logistic curves (GraphPad Prism).
# VCaP cells = test: VCaP growth inhibition assay; details: 30 pM R1881, 9 days, CTG
# Method in brief: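 Growth read by CTG luminescence after 9-day exposure to compound (final 100 nM–10 fM, 1:5 steps) plus 30 pM R1881, in phenol red-free DMEM with 5% CSS. Cells pre-incubated 72 h before dosing; IC50 by nonlinear 4-parameter regression.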
EC50 (AR / CBP ternary complex) [nM],IC50 (VCaP cells) [nM],SMILES,IC50 (HEK-293 cells) [nM]
< 1,≤ 0.1,"COc1cc(OC2C(C)(C)C(NC(=O)c3cnc(N4CCC(CN5CCC(n6nc(N7CCCc8cc(-c9cnn(C)c9)c(C(F)F)cc87)c7c6CCN(C(C)=O)C7)CC5)C(C)(C)C4)nc3)C2(C)C)ccc1C#N (stereo not drawn) [Compound 360, 2-[4-[[4-[5-acetyl-3-[7-(difluoromethyl)-6-(1-methylpyrazol-4-yl)-3,4-dihydro-2H-quinolin-1-yl]-6,7-dihydro-4H-pyrazolo[4,3-c]pyridin-1-yl]-1-piperidyl]methyl]-3,3-dimethyl-1-piperidyl]-N-[3-(4-cyano-3-methoxy-phenoxy)-2,2,4,4-tetramethyl-cyclobutyl]pyrimidine-5-carboxamide]",> 1000
< 1,≤ 0.1,"CC(=O)N1CCc2c(c(N3CCCc4cc(-c5cnn(C)c5)c(C(F)F)cc43)nn2C2CN(C(=O)CN3CCN(c4ncc(C(=O)NC5C(C)(C)C(Oc6ccc(C#N)c(Cl)c6)C5(C)C)cn4)CC3)C2)C1 (stereo not drawn) [Compound 65, 2-[4-[2-[3-[5-acetyl-3-[7-(difluoromethyl)-6-(1-methylpyrazol-4-yl)-3,4-dihydro-2H-quinolin-1-yl]-6,7-dihydro-4H-pyrazolo[4,3-c]pyridin-1-yl]azetidin-1-yl]-2-oxo-ethyl]piperazin-1-yl]-N-[3-(3-chloro-4-cyano-phenoxy)-2,2,4,4-tetramethyl-cyclobutyl]pyrimidine-5-carboxamide]",> 10000
< 1,≤ 0.1,"CC(=O)N1CCc2c(c(N3CCCc4cc(-c5cnn(C)c5)c(C(F)F)cc43)nn2C2CCN(CC3CCN(c4ncc(C(=O)NC5C(C)(C)C(Oc6ccc(C#N)c(Cl)c6)C5(C)C)cn4)CC3(C)C)CC2)C1 (stereo not drawn) [Compound 356, 2-[4-[[4-[5-acetyl-3-[7-(difluoromethyl)-6-(1-methylpyrazol-4-yl)-3,4-dihydro-2H-quinolin-1-yl]-6,7-dihydro-4H-pyrazolo[4,3-c]pyridin-1-yl]-1-piperidyl]methyl]-3,3-dimethyl-1-piperidyl]-N-[3-(3-chloro-4-cyano-phenoxy)-2,2,4,4-tetramethyl-cyclobutyl]pyrimidine-5-carboxamide]",> 1000
< 1,≤ 0.1,"CC(=O)N1CCc2c(c(N3CCCc4cc(-c5cnn(C)c5)c(C(F)F)cc43)nn2C2CCN(C[C@@H]3CCN(c4ncc(C(=O)NC5C(C)(C)C(Oc6ccc(C#N)c(Cl)c6)C5(C)C)cn4)C[C@@H]3C)CC2)C1 (stereo partly drawn) [Compound 275, 2-[(3R,4R)-4-[[4-[5-acetyl-3-[7-(difluoromethyl)-6-(1-methylpyrazol-4-yl)-3,4-dihydro-2H-quinolin-1-yl]-6,7-dihydro-4H-pyrazolo[4,3-c]pyridin-1-yl]-1-piperidyl]methyl]-3-methyl-1-piperidyl]-N-[3-(3-chloro-4-cyano-phenoxy)-2,2,4,4-tetramethyl-cyclobutyl]pyrimidine-5-carboxamide]",> 1000
< 1,0.1 to 1,"CC(=O)N1CCc2c(c(N3CCCc4cc(-c5cnn(C)c5)c(C(F)F)cc43)nn2C2CCN(C3CCN(c4ncc(C(=O)NC5C(C)(C)C(Oc6ccc(C#N)c(Cl)c6)C5(C)C)cn4)CC3)CC2)C1 (stereo not drawn) [Compound 85, 2-[4-[4-[5-acetyl-3-[7-(difluoromethyl)-6-(1-methylpyrazol-4-yl)-3,4-dihydro-2H-quinolin-1-yl]-6,7-dihydro-4H-pyrazolo[4,3-c]pyridin-1-yl]-1-piperidyl]-1-piperidyl]-N-[3-(3-chloro-4-cyano-phenoxy)-2,2,4,4-tetramethyl-cyclobutyl]pyrimidine-5-carboxamide]",> 10000
> 100,0.1 to 1,"CC(=O)N1CCc2c(c(-c3cccc4cc(-c5cnc(C(=O)NCc6ncc(C(=O)NC7C(C)(C)C(Oc8ccc(C#N)c(Cl)c8)C7(C)C)cn6)nc5)ncc34)nn2C2CCOCC2)C1 (stereo not drawn) [Compound 75, 5-[8-(5-acetyl-1-tetrahydropyran-4-yl-6,7-dihydro-4H-pyrazolo[4,3-c]pyridin-3-yl)-3-isoquinolyl]-N-[[5-[[3-(3-chloro-4-cyano-phenoxy)-2,2,4,4-tetramethyl-cyclobutyl]carbamoyl]pyrimidin-2-yl]methyl]pyrimidine-2-carboxamide]",> 10000

SMILES,EC50 (AR / CBP ternary complex) [nM],IC50 (VCaP cells) [nM],IC50 (HEK-293 cells) [nM]
"CNC(=O)N1CCc2c(c(N3CCCc4cc(-c5cnn(C)c5)c(C(F)F)cc43)nn2C2CCN(C(=O)COCCC3CCN(c4ncc(C(=O)NC5C(C)(C)C(Oc6ccc(C#N)c(Cl)c6)C5(C)C)cn4)CC3)CC2)C1 (stereo not drawn) [Compound 99, 1-[1-[2-[2-[1-[5-[[3-(3-chloro-4-cyano-phenoxy)-2,2,4,4-tetramethyl-cyclobutyl]carbamoyl]pyrimidin-2-yl]-4-piperidyl]ethoxy]acetyl]-4-piperidyl]-3-[7-(difluoromethyl)-6-(1-methylpyrazol-4-yl)-3,4-dihydro-2H-quinolin-1-yl]-N-methyl-6,7-dihydro-4H-pyrazolo[4,3-c]pyridine-5-carboxamide]",< 1,≤ 0.1,> 10000
"CNC(=O)N1CCc2c(c(N3CCCc4cc(-c5cnn(C)c5)c(C(F)F)cc43)nn2C2CCN(C(=O)COCCOCC3CCN(c4ncc(C(=O)NC5C(C)(C)C(Oc6ccc(C#N)c(Cl)c6)C5(C)C)cn4)CC3)CC2)C1 (stereo not drawn) [Compound 104, 1-[1-[2-[2-[[1-[5-[[3-(3-chloro-4-cyano-phenoxy)-2,2,4,4-tetramethyl-cyclobutyl]carbamoyl]pyrimidin-2-yl]-4-piperidyl]methoxy]ethoxy]acetyl]-4-piperidyl]-3-[7-(difluoromethyl)-6-(1-methylpyrazol-4-yl)-3,4-dihydro-2H-quinolin-1-yl]-N-methyl-6,7-dihydro-4H-pyrazolo[4,3-c]pyridine-5-carboxamide]",< 1,0.1 to 1,> 10000
"CNC(=O)N1CCc2c(c(N3CCCc4cc(-c5cnn(C)c5)c(C(F)F)cc43)nn2C2CCN(C(=O)COCCOC3CCN(c4ncc(C(=O)NC5C(C)(C)C(Oc6ccc(C#N)c(Cl)c6)C5(C)C)cn4)CC3)CC2)C1 (stereo not drawn) [Compound 98, 1-[1-[2-[2-[[1-[5-[[3-(3-chloro-4-cyano-phenoxy)-2,2,4,4-tetramethyl-cyclobutyl]carbamoyl]pyrimidin-2-yl]-4-piperidyl]oxy]ethoxy]acetyl]-4-piperidyl]-3-[7-(difluoromethyl)-6-(1-methylpyrazol-4-yl)-3,4-dihydro-2H-quinolin-1-yl]-N-methyl-6,7-dihydro-4H-pyrazolo[4,3-c]pyridine-5-carboxamide]",< 1,≤ 0.1,> 10000
"CNC(=O)N1CCc2c(c(N3CCCc4cc(-c5cnn(C)c5)c(C(F)F)cc43)nn2C2CCN(CC3CCN(c4ncc(C(=O)NC5C(C)(C)C(Oc6ccc(C#N)c(Cl)c6)C5(C)C)cn4)CC3)CC2)C1 (stereo not drawn) [Compound 82, 1-[1-[[1-[5-[[3-(3-chloro-4-cyano-phenoxy)-2,2,4,4-tetramethyl-cyclobutyl]carbamoyl]pyrimidin-2-yl]-4-piperidyl]methyl]-4-piperidyl]-3-[7-(difluoromethyl)-6-(1-methylpyrazol-4-yl)-3,4-dihydro-2H-quinolin-1-yl]-N-methyl-6,7-dihydro-4H-pyrazolo[4,3-c]pyridine-5-carboxamide]",< 1,≤ 0.1,> 10000
